The source of these data is patent US6288122A, “Gardos channel antagonists” (Icagen, Inc., priority 1999, dated 2001).

As usually defined, the share remaining is the share of the starting amount still present when the sample was taken. The IC50 is the point on the concentration scale where inhibition reaches its midpoint. The bioavailability is dose-corrected exposure relative to a reference, in per cent. Lower therefore signals little systemic uptake.

Molecules are shown by their SMILES. “And” between values parts separate entries of the source, which are not always exact repeats. Equal values may be shown once. “Also recorded” adds a separate entry of the source. Read-outs that look alike come from different tables or passages of the source.

Series [1] in a line: in vitro. Particulars: human, microsomes, pH 7.4.
Description: The stability of the compounds in various biological milieus can be assayed by methods known in the art. In one embodiment, the stability of the compounds is assayed in an in vitro preparation. In a preferred embodiment, the in vitro preparation is a liver microsome preparation.
The reaction mixture contained 1.0 mg/ml human liver microsomal protein, 100 mM potassium phosphate (pH 7.4), 10 mM MgCl2 and an NADPH-generating system. The compounds were tested at a concentration of 5ΓM at 37° C. and the amount of intact compound remaining in the mixture after two hours calculated in terms of percent of original dose remaining.
Series [2] concerns IKs vs. Gardos. Kind of series: Selectivity for the Gardos channel relative to IKs (ratio of IC50s).
Description: Recordings of IKs current were made using the whole cell patch clamp methodology on guinea pig myocytes as described in Turgeon et al., Circulation Research 75: 879-86 (1994).
The selectivity of a particular compound for the Gardos channel relative to another potassium ion channel is conveniently determined as a ratio of two compound binding-related quantities (e.g., IC50).
The selectivity of the compounds for the Gardos channel was determined relative to IKs, an exemplary potassium ion channel.
For series [3], the target named is T1, Gardos channel (Homo sapiens, UniProt O15554).
T1 construct: endogenous in cells; host or cells: red blood cells from heparinized whole blood
Kind of series: Inhibition of the Gardos channel in red blood cells (86Rb flux). It counts as cell-based. Particulars: for improvement in potency (Gardos) over non-fluorinated triphenylacetamide 20: vs. compound 20. An excerpt:
The activity of the compounds of the invention towards ion channels, such as the Gardos channel can be assayed utilizing methods known in the art. […] Utilizing the methods described in this reference, both the percent inhibition of the Gardos channel and the IC50 of the compounds of the invention can be assayed.
In an exemplary assay, the inhibition by test compounds of an erythrocyte Gardos channel can be assayed using human red blood cells. The degree of inhibition can be measured using a detectable material such as ^86 Rb. In an exemplary assay, utilizing ^86 Rb, Gardos channel inhibition can be assayed by exposing red blood cells to ^86 Rb and a test compound and measuring the amount of ^86 Rb taken up by the cells. Numerous variations on this assay will be apparent to those of skill in the art.
Briefly, erythrocytes are exposed to a test compound and a ^86 Rb-containing medium. The initial rate of ^86 Rb transport can be calculated from a parameter such as the linear least square slope of ^86 Rb uptake by the cell(s). Inhibitory constants can be calculated by standard methods using computer-assisted nonlinear curve fitting.
Heparinized whole blood was washed three times with Modified Flux Buffer (MFB: 140 mM NaCl; 5 mM KCl; 10 mM Tris; 0.1 mM EGTA; pH=7.4). Washed cells were then incubated for 3 hours with ^86 Rb (5 μCi/mL). After this incubation period, the RBCs were washed three times with cold MFB. Washed ^86 Rb loaded RBCs were then incubated with a test compound of the invention for 10 minutes. ^86 Rb flux was then initiated by the addition of 20 μL/mL of a MFB solution containing 10 mM CaCl2 and 100 μM A23187, a calcium ionophore. This yielded a final concentration of 200 μM CaCl2 and 2 μM A23187 n the incubation medium. Cells were incubated for 10 minutes, spun down and the supernatant was removed. Samples were counted in a Wallace Microbeta liquid scintillation counter by Cerenkov emission. Total RBC ^86 Rb content was determined by lysing the RBCs with water and then precipitating protein using a 50:50 mixture of ethanol:chloroform. After a 20 minute microfuge spin, the aqueous and organic layers separated and the aqueous layer was removed and counted. Efflux is expressed as a percentage of the initial cell content of ^86 Rb.

Series [4] concerns the target T2, IKs (Cavia porcellus, UniProt O70344).
T2 construct: Recordings of IKs current were made using the whole cell patch clamp methodology on guinea pig myocytes; endogenous in cells; host or cells: guinea pig myocytes (method of Turgeon et al., Circ. Res. 75: 879-86, 1994)
Kind of series: Whole cell patch clamp recordings of IKs current in guinea pig myocytes. The series is classed as cell-based. Particulars: estimated IC50, read-out: Est. IC50 Potency vs. IKs.

The subject of series [5] is Gardos channel of normal and sickle erythrocytes. Particulars: cited from earlier work; for inhibition of Gardos channel / Ca2+-activated K+ flux: in vitro.
Series [6] in a line: Pharmacokinetic study in the rat (i.v. and p.o.). The series is classed as in vivo, male, Sprague-Dawley rats. The protocol:
Pharmacokinctic studies were conducted in rats to extend the finding that selected fluoro substitution of the phenyl rings increased metabolic stability in vitro to an in vivo study. […] Blood samples were collected at 9 time points from predosing to 24 hours after dosing p.o. and at 11 time points from pre-dosing to 24 hours after i.v. dosing. Samples were prepared and analyzed for compound plasma concentration using LC-MS/MS.

Series [7] deals with red cell Gardos channel. Particulars: oral administration; cited from earlier work.
In series [8] the test system is sickled cells. Particulars: combined with a compound which stabilizes the oxyconformation of Hb S; cited from earlier work.
Series [9] relates to Gardos channel. Particulars: oral therapy; cited from earlier work.
In series [10] the test system is IKs. Particulars: myocytes; cited from earlier work.
Where [11] appears, read: erythrocytes, 86Rb, read-out: IC50 Potency vs. Gardos.

T2 sequence (Q60409 whole entry): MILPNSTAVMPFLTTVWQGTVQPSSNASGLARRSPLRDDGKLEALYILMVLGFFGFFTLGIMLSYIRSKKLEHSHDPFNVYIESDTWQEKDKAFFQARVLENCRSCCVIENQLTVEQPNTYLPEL
T2 sequence (O70344 whole entry): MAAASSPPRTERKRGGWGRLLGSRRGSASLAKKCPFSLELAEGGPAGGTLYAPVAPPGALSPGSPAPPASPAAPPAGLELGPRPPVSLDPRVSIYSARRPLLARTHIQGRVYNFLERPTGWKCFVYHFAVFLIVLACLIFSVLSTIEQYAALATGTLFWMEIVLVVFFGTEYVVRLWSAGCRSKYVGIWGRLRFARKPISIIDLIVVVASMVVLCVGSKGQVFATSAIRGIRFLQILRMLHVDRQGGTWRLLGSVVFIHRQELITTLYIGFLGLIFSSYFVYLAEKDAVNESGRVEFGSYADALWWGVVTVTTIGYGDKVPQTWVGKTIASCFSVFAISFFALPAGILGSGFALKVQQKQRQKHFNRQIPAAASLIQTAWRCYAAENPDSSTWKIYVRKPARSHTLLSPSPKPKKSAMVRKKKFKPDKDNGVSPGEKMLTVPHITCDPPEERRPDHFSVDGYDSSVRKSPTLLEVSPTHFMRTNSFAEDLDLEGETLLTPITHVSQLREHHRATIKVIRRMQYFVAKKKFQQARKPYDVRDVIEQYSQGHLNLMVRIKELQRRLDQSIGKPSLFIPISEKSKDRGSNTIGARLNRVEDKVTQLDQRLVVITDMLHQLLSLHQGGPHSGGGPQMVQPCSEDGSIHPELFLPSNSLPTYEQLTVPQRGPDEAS
T1 sequence (O15554 whole entry): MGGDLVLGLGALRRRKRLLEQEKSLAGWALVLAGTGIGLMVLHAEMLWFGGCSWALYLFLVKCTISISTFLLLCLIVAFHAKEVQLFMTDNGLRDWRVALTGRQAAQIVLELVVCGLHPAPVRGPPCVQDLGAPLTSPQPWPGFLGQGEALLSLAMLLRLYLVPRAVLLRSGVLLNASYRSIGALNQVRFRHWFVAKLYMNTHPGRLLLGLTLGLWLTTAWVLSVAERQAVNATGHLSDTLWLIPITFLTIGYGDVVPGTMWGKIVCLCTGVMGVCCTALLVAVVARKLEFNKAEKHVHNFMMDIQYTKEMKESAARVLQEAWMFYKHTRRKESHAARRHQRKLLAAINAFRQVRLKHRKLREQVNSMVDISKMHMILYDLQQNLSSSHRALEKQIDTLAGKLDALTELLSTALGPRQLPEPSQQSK

For the molecule `NC(=O)C(c1ccc(F)cc1)(c1cccc(F)c1)c1cccc(F)c1` [Compound 10], in series [1], the amount remaining at 2 h, 5 µM is 59%. In addition, the “Selectivity (IKs vs. Gardos)” value in [2] (ratio of IC50 towards IKs vs. IC50 towards the Gardos channel) is reported as 110. The IC50 in series [3] (setting [11]) was 12 nM; in series [4], 1300 nM.

As for `Clc1ccc(COC(Cn2ccnc2)c2ccc(Cl)cc2Cl)cc1` (stereo not shown) [econazole], in [5], the “sickle cell dehydration” value was “effective at reducing sickle cell dehydration” and the “inhibition of Gardos channel / Ca2+-activated K+ flux” value is “inhibit the Gardos channel in vitro”.

For the molecule `NC(=O)C(c1ccccc1)(c1ccccc1F)c1ccccc1F` [Compound 14], the fraction remaining at 2 h, 5 µM in series [1] came out at 46%.

Regarding `NC(=O)C(c1ccccc1)(c1ccccc1)c1c(F)c(F)c(F)c(F)c1F` [Compound 6], the IC50 in series [3] (setting [11]) was found to be 37 nM.

`NC(=O)C(c1ccc(F)cc1)(c1ccccc1F)c1ccccc1F` [Compound 15] gave a fraction remaining at 2 h, 5 µM in series [1] of 53%.

`NC(=O)C(c1ccccc1)(c1ccc(F)cc1)c1ccc(F)cc1` [Compound 3, bis(4-fluorophenyl)phenylacetamide]: in [1], the metabolised at 2 h, 5 µM worked out at 24% and the amount remaining at 2 h, 5 µM came out at 76%. In [6] (plasma, po, 10 mg/kg p.o., 1 mg/kg i.v., rat), this molecule yielded a bioavailability of 100%. In series [4], the IC50 was 1500 nM.

Take `NC(=O)C(c1ccc(F)cc1)(c1ccc(F)cc1)c1ccccc1F` [Compound 5, bis(4-fluorophenyl)-2-fluorophenylacetamide]: in [1], the metabolised at 2 h, 5 µM worked out at 29% and the fraction remaining at 2 h, 5 µM was 71%. Also, the “fold more selective for the Gardos channel versus IKs than clotrimazole” value in series [2] (vs. clotrimazole) was ~18 fold and ~17 fold. Also, the “fold more selective for the Gardos channel than the unsubstituted triphenylacetamide parent 20” value in [2] (vs. compound 20) is recorded as “approximately 6 fold”. For the same molecule, the “fold more potent than clotrimazole towards the Gardos channel” value in series [3] is around 10 fold. In addition, the IC50 in series [4] was 1400 nM.

In [1], `NC(=O)C(c1cccc(F)c1)(c1cccc(F)c1)c1cccc(F)c1` [Compound 17] came in with a metabolised at 2 h, 5 µM of 82% and a fraction remaining at 2 h, 5 µM of 18%. For the same molecule, the IC50 in series [4] was 4000 nM.

As for `CNC(=O)C(c1ccccc1)(c1ccccc1)c1ccccc1` [Compound 22, reference compound], the share remaining at 2 h, 5 µM in series [1] was 8%. Moreover, the results for the IC50 in [3] (setting [11]) and in series [4] were 100 nM and 2600 nM, respectively.

`NC(=O)C(c1ccc(F)cc1)(c1ccc(F)cc1)c1cccc(F)c1` [Compound 16, bis(4-fluorophenyl)-3-fluorophenylacetamide] returned a fraction remaining at 2 h, 5 µM in series [1] of 57%. Moreover, in series [4], the IC50 is 1900 nM.

In series [1], `NC(=O)C(c1ccccc1)(c1ccccc1)c1ccccc1Cl` [Compound 18] showed a share remaining at 2 h, 5 µM of 6%. For the same molecule, the IC50 in series [3] is 10 nM; in series [4], 7300 nM. The “elimination from the bloodstream” value in series [6] (1 mg/kg i.v., rat) is on record as “fast”. In addition, the “plasma level after oral dosing” value in [6] (10 mg/kg p.o., 2 hour post-dose sample) is reported as “no detectable levels”; in series [6] (10 mg/kg p.o., between 0.25 and 1 hour after dosing) it was 31 to 65 ng/mL. Moreover, the “oral bioavailability” value in series [6] (10 mg/kg p.o., rat) is “very poor oral bioavailability”.

As to `NC(=O)C(c1ccccc1)(c1ccccc1)c1ccc(F)c(F)c1` [Compound 7], in [1], the metabolised at 2 h, 5 µM came to 85% and the fraction remaining at 2 h, 5 µM was determined as 15%. Moreover, the IC50 in series [4] was 1200 nM.

With `NC(=O)C(c1ccccc1)(c1ccc(F)cc1)c1ccccc1F` (stereo not shown) [Compound 1, (2-fluorophenyl)-(4-fluorophenyl)phenylacetamide], in series [1], the amount remaining at 2 h, 5 µM turned out to be 64%. In series [6] (10 mg/kg p.o., 1 mg/kg i.v., rat), this molecule showed an oral bioavailability of 35%. Moreover, the IC50 in [4] is 2000 nM.

`OC(c1ccccc1)(c1ccccc1)c1ccccc1Cl` [Compound 21, reference compound] gave a share remaining at 2 h, 5 µM in series [1] of 35%. In addition, the half-maximal inhibitory concentration (IC50) is 500 nM in series [3] and 2600 nM in [4].

`NC(=O)[C@@](c1ccccc1)(c1ccc(F)cc1)c1ccccc1F` [Compound 11] yielded an amount remaining at 2 h, 5 µM in series [1] of 78%. For the same molecule, the “increase in potency (Gardos) of 11 over 9” value in [3] was 600%. The values for the IC50 in [3] (setting [11]) and in series [4] were 5 nM and 1300 nM, respectively.

In the case of `Clc1ccc(COC(Cn2ccnc2)c2ccc(Cl)cc2Cl)c(Cl)c1` (stereo not shown) [miconazole], in series [5], the “sickle cell dehydration” value is reported as “effective at reducing sickle cell dehydration” and the “inhibition of Gardos channel / Ca2+-activated K+ flux” value is recorded as “inhibit the Gardos channel in vitro”.

As for `NC(=O)C(c1ccc(F)cc1)(c1ccc(F)cc1)c1ccc(F)cc1` [Compound 13], the share remaining at 2 h, 5 µM in [1] was determined as 53%. Also, the IC50 in series [4] was 1100 nM.

On to `NC(=O)C(c1ccccc1)(c1ccccc1)c1ccc(F)cc1F` [Compound 8], for which the metabolised at 2 h, 5 µM in [1] turned out to be 61%. Besides, the amount remaining at 2 h, 5 µM in [1] came to 39%. Besides, the IC50 in series [3] (setting [11]) is 34 nM; in series [4] it was 5700 nM.

Regarding `Clc1ccc(CCC(Cn2ccnc2)Sc2c(Cl)cccc2Cl)cc1` (stereo not shown) [butoconazole], in series [5], the “sickle cell dehydration” value is reported as “effective at reducing sickle cell dehydration” and the “inhibition of Gardos channel / Ca2+-activated K+ flux” value was “inhibit the Gardos channel in vitro”.

Turning to `NC(=O)C(c1ccccc1)(c1cccc(F)c1)c1cccc(F)c1` [Compound 9], in series [1], the metabolised at 2 h, 5 µM amounted to 97% and the share remaining at 2 h, 5 µM was found to be 3%. For the same molecule, the IC50 in series [3] (setting [11]) came out at 30 nM. Further, the IC50 in series [4] was 3200 nM.

For the molecule `NC(=O)[C@](c1ccccc1)(c1ccc(F)cc1)c1ccccc1F` [Compound 12], the fraction remaining at 2 h, 5 µM in series [1] is 44%. Also, in series [3], the “improvement in potency (Gardos) of 12 over 8” value is given as around 700%, the “increase in potency (Gardos) over clotrimazole” value is 2000% and the “improvement in potency (Gardos) over non-fluorinated triphenylacetamide 20” value worked out at 1000%. Besides, the IC50 in series [3] (setting [11]) was found to be 5 nM. For the same molecule, in series [4], the IC50 is 1800 nM.

For the molecule `Clc1ccccc1C(c1ccccc1)(c1ccccc1)n1ccnc1` [Compound 19, clotrimazole], the “inhibition of Gardos channel / Ca2+-activated K+ flux” value in series [5] is “specific, potent inhibitor of the Gardos channel of normal and sickle erythrocytes; also recorded: blocks Ca^2+ -activated K^+ flux and cell dehydration in sickle erythrocytes”. For the same molecule, the fraction remaining at 2 h, 5 µM in [1] amounted to 4%. In [7], the “effects of oral clotrimazole in SAD-1 mouse” value is “inhibition of the red cell Gardos channel, increased red cell K^+ content, a decreased mean corpuscular hemoglobin concentration (MCHC) and decreased cell density”. Besides, the “clogging rate of a micropore filter” value in [8] is recorded as “additive reduction in the clogging rate of a micropore filter”. Further, the “effects of oral clotrimazole in patients with sickle cell disease” value in series [9] is “induces inhibition of the Gardos channel and reduces erythrocyte ehydration”. The “interaction with IKs” value in [10] is given as “interact with the slow component of the delayed rectifier potassium current in myocytes, IKs”.

In series [1], `NC(=O)C(c1ccccc1)(c1ccccc1)c1ccc(F)cc1` [Compound 4] came in with an amount remaining at 2 h, 5 µM of 80%. The IC50 in [3] (setting [11]) was determined as 13 nM.

Turning to `NC(=O)C(c1ccccc1)(c1ccccc1)c1ccccc1F` [Compound 2], the share remaining at 2 h, 5 µM in series [1] worked out at 80%. In series [3] (setting [11]), the IC50 turned out to be 15 nM. Besides, the “improvement in potency (Gardos) over non-fluorinated triphenylacetamide 20” value in series [3] is reported as 330%.

With `NC(=O)C(c1ccccc1)(c1ccccc1)c1ccccc1` [Compound 20, reference compound], in [1], the metabolised at 2 h, 5 µM worked out at 87% and the share remaining at 2 h, 5 µM was determined as 13%. The 50% inhibitory concentration (IC50) in series [3] (setting [11]) is 50 nM. Further, the IC50 in series [4] is 1100 nM.
